55 compounds from patent publication US8809341B2, “2,4-pyrimidinediamine compounds and uses as anti-proliferative agents” (Rigel Pharmaceuticals, Inc., priority 2003, dated 2014) can be followed below.

The structures appear in SMILES notation.

The subject of assay [1] is H1299 cells. In words: in vitro antiproliferation assay, H1299 (lung). The class given is cell-based. The method in brief: (§1)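 IC50 values came from standard antiproliferation testing in cultured tumour cells; the A549 and H1299 lines are of lung origin.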
Assay [2] deals with A549 cells. In words: in vitro antiproliferation assay, A549 (lung). It counts as cell-based. An outline of the steps: as §1
Where [3] appears, read: Table 5, in vitro antiproliferation, H1299 (lung) cells.
Setting [4] is: Table 5, in vitro antiproliferation, A549 (lung) cells.
[5] abbreviates: IC50 class against H1299 (lung) tumor cells.
[6] abbreviates: IC50 class against A549 (lung) tumor cells.

Broadly, the IC50 is the concentration needed to halve the response being measured. Higher therefore signals a need for much substance.

As for `COc1cc(Nc2ncc(F)c(Nc3ccc4c(c3)OCCO4)n2)cc(C(F)(F)F)c1` [compound 531], the half-maximal inhibitory concentration (IC50) in assay [1] (setting [3]) was not above 20 µM; in assay [2] (setting [4]), more than 20 µM.

On to `COc1cc(Nc2ncc(F)c(Nc3ccc4c(c3)OC(F)(F)C(F)(F)O4)n2)cc(OC)c1` [compound 532], for which the IC50 in assay [1] (setting [3]) and in assay [2] (setting [4]) was not above 20 µM throughout.

With `Cc1cc(Nc2ncc(F)c(Nc3ccc4c(c3)OC(F)(F)C(F)(F)O4)n2)cc(C)c1Cl` [compound 533], the IC50 was not above 20 µM in assay [1] (setting [3]) and more than 20 µM in assay [2] (setting [4]).

For `Fc1cnc(Nc2cc(Cl)cc(Cl)c2)nc1Nc1ccc2c(c1)OC(F)(F)C(F)(F)O2` [compound 535], the concentration for half-maximal inhibition (IC50) in assay [1] (setting [3]) and in assay [2] (setting [4]) was not above 20 µM throughout.

Turning to `COc1cc(Nc2ncc(F)c(Nc3ccc4c(c3)OC(F)(F)C(F)(F)O4)n2)cc(C(F)(F)F)c1` [compound 536], the IC50 in assay [1] (setting [3]) and in assay [2] (setting [4]) was not above 20 µM throughout.

In the case of `Cc1cc(C)cc(Nc2ncc(F)c(Nc3ccc4c(c3)OC(F)(F)C(F)(F)O4)n2)c1` [compound 537], the IC50 in assay [1] (setting [3]) and in assay [2] (setting [4]) was not above 20 µM each time.

As to `Cc1cc(Nc2ncc(F)c(Nc3ccc4c(c3)OC(F)(F)C(F)(F)O4)n2)cc(C(F)(F)F)c1` [compound 538], the IC50 in assay [1] (setting [3]) was more than 20 µM; in assay [2] (setting [4]), not above 20 µM.

As to `COc1cc(Cl)cc(Nc2ncc(F)c(Nc3ccc4c(c3)OCCO4)n2)c1` [compound 539], the IC50 in assay [1] (setting [3]) and in assay [2] (setting [4]) was not above 20 µM in each case.

Take `COc1cc(Nc2ncc(F)c(Nc3ccc4c(c3)OCO4)n2)cc(C(F)(F)F)c1` [compound 541]: the IC50 in assay [1] (setting [3]) and in assay [2] (setting [4]) was not above 20 µM throughout.

Turning to `Cc1cc(Nc2ncc(F)c(Nc3ccc4c(c3)OCO4)n2)cc(C(F)(F)F)c1` [compound 542], the 50% inhibitory concentration (IC50) in assay [1] (setting [3]) and in assay [2] (setting [4]) was more than 20 µM in each case.

As for `Fc1cnc(Nc2cc(Cl)cc(Cl)c2)nc1Nc1ccc2c(c1)OCO2` [compound 543], the IC50 in assay [1] (setting [3]) and in assay [2] (setting [4]) was not above 20 µM throughout.

For the compound `Cc1cc(C)cc(Nc2ncc(F)c(Nc3ccc4c(c3)OCO4)n2)c1` [compound 544], the IC50 in assay [1] (setting [3]) and in assay [2] (setting [4]) was more than 20 µM in each case.

For the compound `COc1cc(Nc2ncc(F)c(N(C)c3ccc4c(c3)OCCO4)n2)cc(OC)c1` [compound 546], the 50% inhibitory concentration (IC50) in assay [1] (setting [3]) is more than 20 µM; in assay [2] (setting [4]), not above 20 µM.

As for `Cc1cc(C)cc(Nc2ncc(F)c(N(C)c3ccc4c(c3)OCCO4)n2)c1` [compound 547], the IC50 in assay [1] (setting [3]) and in assay [2] (setting [4]) was not above 20 µM throughout.

As to `CN(c1ccc2c(c1)OCCO2)c1nc(Nc2cccc(-c3ncco3)c2)ncc1F` [compound 549], the half-maximal inhibitory concentration (IC50) in assay [1] (setting [3]) and in assay [2] (setting [4]) was not above 20 µM throughout.

For the compound `CC(=O)N1CCN(c2cccc(Nc3ncc(F)c(Nc4ccc5c(c4)OCCO5)n3)c2)CC1` [compound 550], the half-inhibitory concentration (IC50) in assay [1] (setting [3]) and in assay [2] (setting [4]) was not above 20 µM in each case.

For `CC(=O)N1CCN(c2cccc(Nc3ncc(F)c(Nc4ccc5c(c4)OC(F)(F)C(F)(F)O5)n3)c2)CC1` [compound 552], the IC50 in assay [1] (setting [3]) and in assay [2] (setting [4]) was not above 20 µM in each case.

Take `CC(=O)N1CCN(c2ccc(Nc3ncc(F)c(Nc4ccc5c(c4)OC(F)(F)C(F)(F)O5)n3)cc2)CC1` [compound 553]: the IC50 in assay [1] (setting [3]) and in assay [2] (setting [4]) was not above 20 µM each time.

With `CNC(=O)c1ccc(Nc2ncc(F)c(Nc3ccc4c(c3)OCCO4)n2)cc1Cl` [compound 554], the half-inhibitory concentration (IC50) in assay [1] (setting [3]) and in assay [2] (setting [4]) was not above 20 µM throughout.

On to `COC(=O)c1cc(Nc2ncc(F)c(Nc3ccc4c(c3)OCCO4)n2)cc(-c2ncco2)c1` [compound 558], for which the IC50 in assay [1] (setting [3]) and in assay [2] (setting [4]) was not above 20 µM throughout.

Turning to `Fc1cnc(Nc2cc(-c3ncco3)cc(C(F)(F)F)c2)nc1Nc1ccc2c(c1)OCCO2` [compound 559], the concentration for half-maximal inhibition (IC50) in assay [1] (setting [3]) and in assay [2] (setting [4]) was not above 20 µM throughout.

With `COc1cc(Nc2ncc(F)c(Nc3ccc4c(c3)OC(F)(F)O4)n2)cc(OC)c1OC` [compound 560], the IC50 in assay [1] (setting [3]) and in assay [2] (setting [4]) was not above 20 µM in each case.

For the compound `COc1cc(Nc2ncc(F)c(Nc3ccc4c(c3)OC(F)(F)O4)n2)cc(OC)c1` [compound 561], the IC50 in assay [1] (setting [3]) and in assay [2] (setting [4]) was not above 20 µM in each case.

Turning to `Cc1cc(C)cc(Nc2ncc(F)c(Nc3ccc4c(c3)OC(F)(F)O4)n2)c1` [compound 562], the IC50 in assay [1] (setting [3]) and in assay [2] (setting [4]) was not above 20 µM in each case.

Consider `Oc1c(Cl)cc(Nc2ncc(F)c(Nc3ccc4c(c3)OC(F)(F)O4)n2)cc1Cl` [compound 563], for which the IC50 in assay [1] (setting [3]) and in assay [2] (setting [4]) was not above 20 µM throughout.

Consider `Fc1cnc(Nc2cc(Cl)cc(Cl)c2)nc1Nc1ccc2c(c1)OC(F)(F)O2` [compound 564], for which the IC50 in assay [1] (setting [3]) and in assay [2] (setting [4]) was not above 20 µM each time.

For `Cc1cc(Nc2ncc(F)c(Nc3ccc4c(c3)OC(F)(F)O4)n2)cc(C)c1Cl` [compound 565], the IC50 in assay [1] (setting [3]) and in assay [2] (setting [4]) was more than 20 µM each time.

`Cc1cc(Nc2ncc(F)c(Nc3ccc4c(c3)OC(F)(F)O4)n2)cc(Cl)c1O` [compound 566]: the IC50 in assay [1] (setting [3]) and in assay [2] (setting [4]) was not above 20 µM throughout.

For the compound `COc1cc(Nc2ncc(F)c(Nc3ccc4c(c3)OC(F)(F)O4)n2)cc(C(F)(F)F)c1` [compound 567], the IC50 in assay [1] (setting [3]) and in assay [2] (setting [4]) was not above 20 µM in each case.

Consider `Cc1cc(Nc2ncc(F)c(Nc3ccc4c(c3)OC(F)(F)O4)n2)cc(C(F)(F)F)c1` [compound 568], for which the half-maximal inhibitory concentration (IC50) in assay [1] (setting [3]) was not above 20 µM; in assay [2] (setting [4]), more than 20 µM.

Take `CNC(=O)COc1c(C)cc(Nc2ncc(F)c(Nc3ccc4c(c3)OCCO4)n2)cc1C` [compound 569]: the half-inhibitory concentration (IC50) in assay [1] (setting [3]) and in assay [2] (setting [4]) was not above 20 µM each time.

For the compound `CNC(=O)COc1c(C)cc(Nc2ncc(F)c(Nc3ccc4c(c3)OCO4)n2)cc1C` [compound 570], the IC50 in assay [1] (setting [3]) and in assay [2] (setting [4]) was not above 20 µM throughout.

With `Fc1cnc(Nc2cccc(-c3ncco3)c2)nc1Nc1ccc2c(c1)OC(F)(F)C(F)(F)O2` [compound 571], the 50% inhibitory concentration (IC50) in assay [1] (setting [3]) and in assay [2] (setting [4]) was not above 20 µM each time.

Regarding `CN(c1ccc2c(c1)OC(F)(F)C(F)(F)O2)c1nc(Nc2cccc(-c3ncco3)c2)ncc1F` [compound 572], the IC50 in assay [1] (setting [3]) and in assay [2] (setting [4]) was not above 20 µM in each case.

As to `CNC(=O)COc1c(C)cc(Nc2ncc(F)c(N(C)c3ccc4c(c3)OCCO4)n2)cc1C` [compound 573], the half-inhibitory concentration (IC50) in assay [1] (setting [3]) and in assay [2] (setting [4]) was not above 20 µM each time.

On to `CNC(=O)COc1c(C)cc(Nc2ncc(F)c(N(C)c3ccc4c(c3)OC(F)(F)C(F)(F)O4)n2)cc1C` [compound 574], for which the concentration for half-maximal inhibition (IC50) in assay [1] (setting [3]) and in assay [2] (setting [4]) was not above 20 µM throughout.

`CNC(=O)COc1c(C)cc(Nc2ncc(F)c(Nc3ccc4c(c3)OC(F)(F)C(F)(F)O4)n2)cc1C` [compound 575]: the IC50 in assay [1] (setting [3]) and in assay [2] (setting [4]) was not above 20 µM each time.

In the case of `COc1cc(Nc2ncc(F)c(Nc3ccc4c(c3)NC(C)(C)CO4)n2)cc(OC)c1` [compound 588], the IC50 in assay [1] (setting [5]) and in assay [2] (setting [6]) was not above 20 µM throughout.

For the compound `Fc1cnc(Nc2cccc(-c3ncco3)c2)nc1Nc1ccc2c(c1)NCCO2` [compound 589], the half-maximal inhibitory concentration (IC50) in assay [1] (setting [5]) and in assay [2] (setting [6]) was not above 20 µM each time.

With `CC1(C)COc2ccc(Nc3nc(Nc4cccc(-c5ncco5)c4)ncc3F)cc2N1` [compound 590], the half-inhibitory concentration (IC50) in assay [1] (setting [5]) and in assay [2] (setting [6]) was not above 20 µM throughout.

For the compound `Fc1cnc(Nc2cccc(-c3cnco3)c2)nc1Nc1ccc2c(c1)NCCO2` [compound 591], the half-maximal inhibitory concentration (IC50) in assay [1] (setting [5]) and in assay [2] (setting [6]) was not above 20 µM in each case.

Turning to `CC1(C)COc2ccc(Nc3nc(Nc4cccc(-c5cnco5)c4)ncc3F)cc2N1` [compound 592], the IC50 in assay [1] (setting [5]) and in assay [2] (setting [6]) was more than 20 µM in each case.

On to `COc1c(C)cc(Nc2ncc(F)c(Nc3ccc4c(c3)NCC(C)(C)O4)n2)cc1Cl` [compound 597], for which the IC50 in assay [1] (setting [5]) and in assay [2] (setting [6]) was not above 20 µM throughout.

Consider `CC(=O)N1CCN(c2ccc(Nc3ncc(F)c(Nc4ccc5c(n4)NCCO5)n3)cc2)CC1` [compound 603], for which the concentration for half-maximal inhibition (IC50) in assay [1] (setting [5]) and in assay [2] (setting [6]) was not above 20 µM each time.

On to `CCOC(=O)N1CCN(c2ccc(Nc3ncc(F)c(Nc4ccc5c(n4)NCCO5)n3)cc2)CC1` [compound 604], for which the values for the IC50 in assay [1] (setting [5]) and in assay [2] (setting [6]) were not above 20 µM and more than 20 µM, respectively.

As for `Fc1cnc(Nc2cccc(N3CCOCC3)c2)nc1Nc1ccc2c(n1)NCCO2` [compound 605], the 50% inhibitory concentration (IC50) in assay [1] (setting [5]) and in assay [2] (setting [6]) was not above 20 µM each time.

As for `CC(=O)N1CCN(c2cccc(Nc3ncc(F)c(Nc4ccc5c(n4)NCCO5)n3)c2)CC1` [compound 606], the concentration for half-maximal inhibition (IC50) in assay [1] (setting [5]) and in assay [2] (setting [6]) was not above 20 µM throughout.

On to `CCOC(=O)N1CCN(c2cccc(Nc3ncc(F)c(Nc4ccc5c(n4)NCCO5)n3)c2)CC1` [compound 607], for which the half-maximal inhibitory concentration (IC50) in assay [1] (setting [5]) and in assay [2] (setting [6]) was not above 20 µM throughout.

For the compound `CN1CCN(c2ccc(Nc3ncc(F)c(Nc4ccc5c(n4)NCCO5)n3)cc2)CC1` [compound 608], the IC50 in assay [1] (setting [5]) and in assay [2] (setting [6]) was not above 20 µM throughout.

Take `CN1CCN(c2cccc(Nc3ncc(F)c(Nc4ccc5c(n4)NCCO5)n3)c2)CC1` [compound 609]: the IC50 in assay [1] (setting [5]) and in assay [2] (setting [6]) was not above 20 µM throughout.

As to `Fc1cnc(Nc2cccc(-c3ncco3)c2)nc1Nc1ccc2c(n1)NCCO2` [compound 610], the half-inhibitory concentration (IC50) in assay [1] (setting [5]) and in assay [2] (setting [6]) was not above 20 µM throughout.

On to `COc1cc(Nc2ncc(F)c(Nc3ccc4c(n3)NCCO4)n2)cc(OC)c1OC` [compound 611], for which the 50% inhibitory concentration (IC50) in assay [1] (setting [5]) and in assay [2] (setting [6]) was not above 20 µM throughout.

For the compound `COc1ccc(Nc2ncc(F)c(Nc3ccc4c(n3)NCCO4)n2)cc1Cl` [compound 612], the IC50 in assay [1] (setting [5]) and in assay [2] (setting [6]) was more than 20 µM in each case.

Consider `CN1CCN(c2ccc(Nc3ncc(F)c(Nc4ccc5c(n4)NCCO5)n3)cc2Cl)CC1` [compound 615], for which the IC50 in assay [1] (setting [5]) and in assay [2] (setting [6]) was not above 20 µM each time.

On to `Cc1cc(Nc2ncc(F)c(Nc3ccc4c(n3)NCCO4)n2)ccc1N1CCN(C)CC1` [compound 616], for which the 50% inhibitory concentration (IC50) in assay [1] (setting [5]) and in assay [2] (setting [6]) was not above 20 µM each time.
